The values that follow come from ChEMBL document CHEMBL5241051, “Phthalimide analogs for antimalarial drug discovery” (RSC Med Chem, 2021).

Structures are written as SMILES. Some results are limits rather than exact numbers.

The subject of data set [1] is Plasmodium falciparum. Nature of the data set: Antiplasmodial activity against Plasmodium falciparum 3D7 assessed as inhibition of parasite growth incubated for 48 hrs by SYBR green I staining based fluorescence assay. It counts as functional, organism-based. The conditions noted are these: 3D7, 48 h.
In data set [2] the test system is Plasmodium falciparum. Nature of the data set: Antiplasmodial activity against chloroquine resistant Plasmodium falciparum 7GB assessed as inhibition of parasite growth incubated for 48 hrs by SYBR green I staining based fluorescence assay. In kind it is functional, organism-based.
The subject of data set [3] is Plasmodium falciparum. Nature of the data set: Antiplasmodial activity against chloroquine sensitive Plasmodium falciparum 3D7 assessed as reduction in [3H]-hypoxanthine incorporation by liquid scintillation beta counter analysis. In kind it is functional, organism-based.
The nature of data set [4]: Inhibition of Plasmodium falciparum plasmepsin II assessed as substrate cleavage preincubated with enzyme for 5 mins followed by substrate addition and measured immediately by spectrophotometric analysis.
Data set [5] is described as follows: Inhibition of Plasmodium falciparum plasmepsin IV assessed as substrate cleavage preincubated with enzyme for 5 mins followed by substrate addition and measured immediately by spectrophotometric analysis.
Data set [6] relates to Plasmodium falciparum. Nature of the data set: Antiplasmodial activity against chloroquine sensitive Plasmodium falciparum D6 infected in erythrocytes (unknown origin) incubated for 72 hrs by SYBR green I staining based fluorescence assay. It counts as functional, organism-based. The conditions noted are these: D6, Erythrocyte.
Data set [7] has as its system Plasmodium falciparum. Put plainly: Antiplasmodial activity against multidrug resistant Plasmodium falciparum Dd2 infected in erythrocytes (unknown origin) incubated for 72 hrs by SYBR green I staining based fluorescence assay. Particulars: Dd2, Erythrocyte. In kind it is functional, organism-based.
Data set [8] is described as follows: Cytotoxicity against human U-937 cells assessed as inhibition of cell growth incubated for 24 hrs by Celltiter-Glo assay. In kind it is toxicity, cell-based. (In general: In ATP-based viability assays light output follows the ATP content of the culture.)
Data set [9] in a line: Cytotoxicity against human PBMC cells assessed as inhibition of cell growth incubated for 24 hrs by Celltiter-Glo assay. In kind it is toxicity, cell-based.
The nature of data set [10]: Inhibition of Plasmodium falciparum plasmepsin V.
Data set [11] is described as follows: Inhibition of Plasmodium falciparum plasmepsin X.
Data set [12] has as its system Plasmodium berghei. Put plainly: Antimalarial activity against GFP-expressing liver stage Plasmodium berghei ANKA sporozoites infected in human HepG2 cells assessed as inhibition of parasite growth incubated for 2 days by imaging analysis. It counts as functional, organism-based. The conditions noted are these: HepG2, 48 h.
In data set [13] the test system is Plasmodium berghei. Put plainly: Antimalarial activity against GFP-expressing Plasmodium berghei ANKA infected in mouse assessed as survival rate at 50 mg/kg, sc pre-infected for 2 hrs followed by compound addition. In kind it is functional.
Data set [14] concerns Plasmodium berghei. Put plainly: Antimalarial activity against chloroquine resistant Plasmodium berghei NK-65 infected RBC infected in Swiss albino mouse assessed as survival rate at 100 mg/kg, sc pre-infected for 48 hrs followed by compound addition for 4 days in the presence of artemisinin. In kind it is functional. The conditions noted are these: time 4 day.
Data set [15] concerns Plasmodium falciparum. Put plainly: Antiplasmodial activity against Plasmodium falciparum RKL-9 stage I-V gametocytes assessed as reduction in parasitemia incubated for 72 hrs by giemsa staining based analysis. The conditions noted are these: RKL-9, 72 h.
Data set [16] concerns Plasmodium falciparum. Put plainly: Antiplasmodial activity against Plasmodium falciparum 3D7 infected in erythrocytes (unknown origin) assessed as inhibition of parasite growth by SYBR green staining based fluorescence assay. Particulars: 3D7, Erythrocyte. In kind it is functional, organism-based.
A short description of data set [17]: Cytotoxicity against human HepG2 cells assessed as reduction in cell viability incubated for 24 hrs by MTT assay. It counts as toxicity, cell-based.
The nature of data set [18]: Selectivity index, ratio of CC50 for cytotoxicity against human HepG2 cells to IC50 for […] activity against Plasmodium falciparum 3D7. In kind it is toxicity, cell-based. Particulars: read-out: Ratio CC50/IC50.
Data set [19] has as its system Plasmodium falciparum. Put plainly: Antiplasmodial activity against chloroquine sensitive Plasmodium falciparum 3D7 infected in erythrocytes (unknown origin) assessed as inhibition of parasite growth incubated for 90 hrs by SYBR green staining based fluorescence assay. In kind it is functional, organism-based. Particulars: 3D7, Erythrocyte.
Data set [20] deals with Plasmodium falciparum. Nature of the data set: Antiplasmodial activity against chloroquine resistant Plasmodium falciparum W2 infected in erythrocytes (unknown origin) assessed as inhibition of parasite growth incubated for 90 hrs by SYBR green staining based fluorescence assay. It counts as functional, organism-based. Particulars: W2, Erythrocyte.
In data set [21] the test system is Plasmodium falciparum. Nature of the data set: Inhibition of Plasmodium falciparum 3D7 cytochrome bc1 oxidoreductase using decylubiquinol as substrate at 70 uM relative to control.

Consider `CC(C)[C@@H](C(=O)N[C@H](Cc1ccccc1)[C@@H](O)CN1CCN(Cc2ccc(Br)cc2)CC1)N1C(=O)c2ccccc2C1=O`, for which the half-maximal inhibitory concentration (IC50) in the data set on Plasmodium falciparum [1] came to 1250 nM.
Turning to `O=C(N[C@H](Cc1ccccc1)[C@@H](O)CN1CCN(C[C@H](O)[C@@H](Cc2ccccc2)NC(=O)[C@@H](Cc2ccccc2)N2C(=O)c3ccccc3C2=O)CC1)[C@@H](Cc1ccccc1)N1C(=O)c2ccccc2C1=O`, the 50% inhibitory concentration (IC50) with Plasmodium falciparum [1] turned out to be 1300 nM; in the data set with Plasmodium falciparum [2], 2990 nM.
As to `Cc1ccc2c(c1)C(=O)N(C(Cc1ccccc1)C(=O)NC(Cc1ccccc1)C(O)CN1CCN(CC(O)C(Cc3ccccc3)NC(=O)C(Cc3ccccc3)N3C(=O)c4ccc(C)cc4C3=O)CC1)C2=O` (stereo not drawn), the half-inhibitory concentration (IC50) with Plasmodium falciparum [3] turned out to be 1310 nM; with Plasmodium falciparum [6], 910 nM; with Plasmodium falciparum [7], 600 nM; in the data set with Plasmodium berghei [12] it was 2100 nM; with Plasmodium falciparum [15], 1680 nM. The Ki amounted to 112 nM in data set [4], 252 nM in data set [5], 530 nM in data set [10] and 3830 nM in data set [11]. Moreover, the CC50 at 24 h in [8] was found to be 26400 nM; in data set [9], 11100 nM. Further, the Survival in the data set with Plasmodium berghei [13] was 20 days; in the data set with Plasmodium berghei [14], 15 days.
Turning to `O=C(N[C@H](Cc1ccccc1)[C@@H](O)CN1CCN(Cc2ccc(F)cc2)CC1)[C@@H](Cc1ccccc1)N1C(=O)c2ccccc2C1=O`, the IC50 with Plasmodium falciparum [1] amounted to 1330 nM; with Plasmodium falciparum [2], 2990 nM.
Consider `COc1ccc(N2C(=O)c3cccc(NCc4ccccc4)c3C2=O)cc1`, for which, in the data set with Plasmodium falciparum [16], the IC50 turned out to be 6800 nM. Moreover, the half-maximal cytotoxic concentration (CC50) at 24 h in [17] was > 250000 nM. Further, the selectivity ratio in data set [18] was > 59.
For `CC(C)[C@H](C(=O)N[C@H](Cc1ccccc1)[C@@H](O)CN1CCN(C[C@H](O)[C@@H](Cc2ccccc2)NC(=O)[C@@H](C(C)C)N2C(=O)c3ccccc3C2=O)CC1)N1C(=O)c2ccccc2C1=O`, the Ki in data set [5] turned out to be 3300 nM.
On to `CC(C)(C)OC(=O)N[C@H](Cc1ccccc1)[C@@H](O)CN1CCC(N2CCCCC2)CC1`, for which the IC50 is 1160 nM in the data set on Plasmodium falciparum [1] and 2990 nM in the data set on Plasmodium falciparum [2].
On to `CC(C)CC(c1nc2ccccc2n1Cc1cnnn1-c1ccccc1)N1C(=O)c2ccccc2C1=O` (stereo not drawn), for which the values for the IC50 with Plasmodium falciparum [19] and in the data set on Plasmodium falciparum [20] were 900 nM and 700 nM, respectively.
In the case of `COc1ccc(N2C(=O)c3cccc(N)c3C2=O)cc1`, in the data set with Plasmodium falciparum [16], the IC50 worked out at 4200 nM. Moreover, the CC50 at 24 h in data set [17] was > 250000 nM. For the same compound, in [18], the selectivity ratio was > 36. Further, the inhibition with Plasmodium falciparum [21] was 74%.
In the case of `CC(C)CC(c1nc2ccccc2n1Cc1cnn[nH]1)N1C(=O)c2ccccc2C1=O` (stereo not drawn), the IC50 in the data set on Plasmodium falciparum [19] stood at 700 nM; in the data set on Plasmodium falciparum [20], 900 nM.
With `CC[C@H](C)[C@@H](C(=O)N[C@H](Cc1ccccc1)[C@@H](O)CN1CCN(C[C@H](O)[C@@H](Cc2ccccc2)NC(=O)[C@H]([C@@H](C)CC)N2C(=O)c3ccccc3C2=O)CC1)N1C(=O)c2ccccc2C1=O`, in data set [4], the inhibition constant (Ki) amounted to 990 nM.

The IC50 is the concentration that gives 50% inhibition. As a reminder, the Ki is a dissociation constant, usually derived from enzyme kinetics or from competition with a known ligand. One may read the CC50 as the concentration giving 50% cytotoxicity. As usually defined, the inhibition is the change of the read-out against control, counted positive when it falls. Low readings indicate a response near the control, high ones a response far below the control.
